Where “and” joins values, the source holds several entries; their conditions need not be identical. Equal values may be shown once. Toxic doses and inconclusive results are not listed. Cut-off read from the data, not from the text of the source: active = T/C of 150% or more; inactive = T/C below 125%.
System: L1210 leukemia ip in BDF1 mice, survival T/C
Experiment: NCI In Vivo Anticancer Drug Screen. Data for tumor model L1210 Leukemia (intraperitoneal) in B6D2F1 (BDF1) mice
Settings: endpoint: mean survival time, higher = longer survival
Outline: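 Ratio derived from survival: compound-dosed mice over vehicle-dosed mice, all bearing a transplantable tumor.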

[1] = dose: 100.0 mg/kg/injection, schedule: Q01DX001 (ip), vehicle: saline
[2] = dose: 100.0 mg/kg/injection, schedule: Q01DX009 (ip), vehicle: saline
[3] = dose: 100.0 mg/kg/injection, schedule: Q04DX003 (ip), vehicle: saline
[4] = dose: 200.0 mg/kg/injection, schedule: Q04DX003 (ip), vehicle: saline

Measured: T/C

NC(C(=O)O)c1cc(Cl)co1 (configuration not stated)
inactive: dose: 100.0 mg/kg/injection, schedule: Q04DX003 (ip), vehicle: Klucel (hydroxypropylcellulose) (HPC) 105 % of control | dose: 200.0 mg/kg/injection, schedule: Q04DX003 (ip), vehicle: Klucel (hydroxypropylcellulose) (HPC) 105 % of control | dose: 400.0 mg/kg/injection, schedule: Q04DX003 (ip), vehicle: Klucel (hydroxypropylcellulose) (HPC) 101 % of control

NCCCC(=O)O
inactive: [1] 99 % of control | [2] 100 % of control | [3] 103 % of control | dose: 200.0 mg/kg/injection, schedule: Q01DX001 (ip), vehicle: saline 105 % of control | dose: 200.0 mg/kg/injection, schedule: Q01DX009 (ip), vehicle: saline 90 % of control | [4] 98 % of control | dose: 400.0 mg/kg/injection, schedule: Q01DX001 (ip), vehicle: saline 101 % of control | dose: 400.0 mg/kg/injection, schedule: Q01DX009 (ip), vehicle: saline 94 % of control | dose: 400.0 mg/kg/injection, schedule: Q04DX003 (ip), vehicle: saline 101 % of control

CCN(CC)CCNC(Cc1ccccc1)c1ccc(OCc2ccccc2)cc1 (configuration not stated)
inactive: dose: 100.0 mg/kg/injection, schedule: Q01DX001 (ip), vehicle: carboxymethylcellulose (CMC) 100 % of control | dose: 200.0 mg/kg/injection, schedule: Q01DX001 (ip), vehicle: carboxymethylcellulose (CMC) 96 % of control | dose: 400.0 mg/kg/injection, schedule: Q01DX001 (ip), vehicle: carboxymethylcellulose (CMC) 96 % of control

O=C(O)C1CCSS1 (configuration not stated)
inactive: dose: 50.0 mg/kg/injection, schedule: Q01DX009 (ip), vehicle: saline 89 % of control | [2] 92 % of control | [3] 101 % of control | [4] 104 % of control

c1ccc(CNCc2ccc(CNCc3ccccc3)cc2)cc1
inactive: dose: 100.0 mg/kg/injection, schedule: Q04DX003 (ip), vehicle: saline with Tween-80 93 % of control | dose: 200.0 mg/kg/injection, schedule: Q04DX003 (ip), vehicle: saline with Tween-80 97 % of control | dose: 400.0 mg/kg/injection, schedule: Q04DX003 (ip), vehicle: saline with Tween-80 98 % of control

CCOC1CCC2C(CCC(/C=C/c3ccc(O)c4ncccc34)N2C)C1 (configuration not stated)
inactive: dose: 21.0 mg/kg/injection, schedule: Q01DX015 (ip), vehicle: saline 113 % of control | dose: 36.0 mg/kg/injection, schedule: Q01DX015 (ip), vehicle: saline 111 % of control | dose: 88.8 mg/kg/injection, schedule: Q01DX001 (ip), vehicle: saline 103 % of control and 116 % of control | [1] 115 % of control | dose: 100.0 mg/kg/injection, schedule: Q01DX015 (ip), vehicle: saline 93 % of control | dose: 133.4 mg/kg/injection, schedule: Q01DX001 (ip), vehicle: saline 108 % of control and 116 % of control and 121 % of control | dose: 300.0 mg/kg/injection, schedule: Q01DX001 (ip), vehicle: saline 116 % of control and 121 % of control

O=C1NC(=O)C(c2ccccc2)O1 (configuration not stated)
inactive: dose: 100.0 mg/kg/injection, schedule: Q01DX001 (ip), vehicle: other 92 % of control | dose: 200.0 mg/kg/injection, schedule: Q01DX001 (ip), vehicle: other 103 % of control | dose: 400.0 mg/kg/injection, schedule: Q01DX001 (ip), vehicle: other 97 % of control

From PubChem BioAssay AID248 (DTP/NCI, 2004)
